The text below walks through data of patent publication US10759816B2, “Heterocyclic compounds as RSV inhibitors” (Enanta Pharmaceuticals, Inc., priority 2016, dated 2020).

Where only a bound is given, the exact number is not on record here.

In the test the test system is genotype A, "Long" strain RSV. Kind of test: RSV-A in vitro cytoprotection assay in HEp-2 cells (ATPlite readout of cell viability). In kind it is cell-based, Human respiratory syncytial virus. The following applies: human respiratory syncytial virus, HEp-2, HEp-2 cells, genotype A “Long” strain RSV, cytoprotection; read-out: Human RSV-A (“Long” strain) EC50. An excerpt: RSV is a single stranded negative sense RNA virus that causes respiratory tract infections which can be dangerous to infants, the elderly, and immunosuppressed individuals. Currently there is no vaccine, and therapeutic options are both costly and of limited effectiveness. These approved treatments are Ribavirin, and Palivizumab/Synagis (a monoclonal antibody). RSV has two genotypes, A and B, which differ primarily in the structure of the virus' surface “G” attachment protein. Our current primary screen focuses on RSV-A and uses an in vitro cytoprotection assay where compounds are added in 2-fold dilutions to cells which are then subjected to fully replicative viral particles. Cell viability is measured several days later along with separate measurements of compound cytotoxicity. This report focuses on the results of our most recent screening of compounds.
HEp-2 cells, (originally derived from tumors grown in irradiated-cortisonised weanling rats that had been injected with epidermoid carcinoma tissue from a person's larynx, but later found to be indistinguishable from HeLa cells by PCR DNA analysis), were used for the culturing of genotype A, “Long” strain RSV. Flasks were inoculated with RSV and viral stocks were collected once cytopathic effect (CPE) was greater than 90%. Viral stocks in 25% sucrose media were snap frozen using liquid nitrogen to increase viral stability. Viral stock titers were quantified by tissue culture infectious dose 50% (TCID50) using 8,000 cells per well and 3-fold viral dilutions across a 96-well plate, cultured for 4 days.
Following extensive parameter testing, the final assay is run as follows: HEp-2 cells are seeded into the inner 60 wells of a 96-well plate at 8,000 cells per well in a volume of 50 μL using Growth Media (DMEM without phenol red, 1% L-Glut, 1% Penn/Strep, 1% nonessential amino acids, 10% FBS). 2-Fold serial dilutions of control and test compounds are added to the wells in duplicate in a total volume of 25 μL. Viral stock is then added to the wells in a volume of 25 μL, bringing the total volume of each well to 100 μL. Each 96-well plate has a control column of 6 wells with cells and virus but no compound (negative control, max CPE), a column with cells but no compound or virus (positive control, minimum CPE), and a column with no cells or virus or compound (background plate/reagent control). The control wells with cells but no virus are given an additional 25 uL of growth media containing an equal quantity of sucrose as those wells receiving the viral stock in order to keep consistent in media and volume conditions. The outer wells of the plate are filled with 125 μL of growth media to act as a thermal and evaporative moat around the test wells. Following a 4-day incubation period, the plates are read using ATPlite (50 uL added per well), which quantifies the amount of ATP (a measure of cell health) present in each well. Assay plates are read using the Envision luminometer. In parallel, cytotoxicity is examined on an additional 96-well plate treated in an identical manner, but substituting the 25 μL of viral stock for 25 μL of growth media. […] EC50 ranges are as follows: A <0.4 μM; B 0.4-0.8 μM; C >0.8 μM.
On the technique in general: Cellular ATP, detected with luciferase, serves as a proxy for viable cell number.
The term EC50 denotes the concentration that produces a half-maximal response. In the case of `CN(C)c1cc(-c2cccc(C(=O)N3CCc4cc(C(=O)NC5CC5)sc4-c4ccccc43)n2)ccn1` [Example 84], the EC50 was in the range of 0.4 to 0.8 µM. In the case of `O=C(NC1CC1)c1cc2c(s1)-c1ccccc1N(C(=O)c1cccc(-c3ccnc(N4CCOCC4)c3)n1)CC2` [Example 85] it was less than 0.4 µM. With `O=C(NC1CC1)c1cc2c(s1)-c1ccccc1N(C(=O)c1cccc(-c3ccnc(N4CCCOCC4)c3)n1)CC2` [Example 86], the EC50 was less than 0.4 µM. To `O=C(NC1CC1)c1cc2c(s1)-c1ccccc1N(C(=O)c1cccc(-c3cccnc3N3CCOCC3)n1)CC2` [Example 87] belongs 0.4 to 0.8 µM; to `O=C(NC1CC1)c1cc2c(s1)-c1ccccc1N(C(=O)c1cccc(-c3cccnc3N3CCCOCC3)n1)CC2` [Example 88], 0.4 to 0.8 µM; to `O=C(NC1CC1)c1cc2c(s1)-c1ccccc1N(C(=O)c1cccc(-c3ccc(N4CCOCC4)nc3)n1)CC2` [Example 89], 0.4 to 0.8 µM. As to `O=C(NC1CC1)c1cc2c(s1)-c1ccccc1N(C(=O)c1cccc(-c3ccc(N4CCCOCC4)nc3)n1)CC2` [Example 90], the EC50 was in the range of 0.4 to 0.8 µM. In the case of `O=C(NC1CC1)c1cc2c(s1)-c1ccccc1N(C(=O)c1cccc(-c3cc(N4CCOCC4)ncc3F)n1)CC2` [Example 91] it was 0.4 to 0.8 µM.

For `O=C(NC1CC1)c1cc2c(s1)-c1ccccc1N(C(=O)c1cccc(-c3cnc(N4CCOCC4)c(F)c3)n1)CC2` [Example 92], the EC50 lay in the range of 0.4 to 0.8 µM. In the case of `O=C(NC1CC1)c1cc2c(s1)-c1ccccc1N(C(=O)c1ccc(Cl)c(-c3ccnc(N4CCOCC4)c3)n1)CC2` [Example 93] it was greater than 0.8 µM.

Take `CNC(=O)c1cc2c(s1)-c1ccccc1N(C(=O)c1cccc(-c3ccc(OC)nc3)n1)CC2` [Example 94]: the EC50 is greater than 0.8 µM.

As to `COc1ccc(-c2cccc(C(=O)N3CCc4cc(C(=O)N(C)C)sc4-c4ccccc43)n2)cn1` [Example 95], the EC50 is 0.4 to 0.8 µM. In the case of `COc1ccc(-c2cccc(C(=O)N3CCc4cc(C(=O)NCC5CC5)sc4-c4ccccc43)n2)cn1` [Example 96] it was 0.4 to 0.8 µM; in that of `COCCNC(=O)c1cc2c(s1)-c1ccccc1N(C(=O)c1cccc(-c3ccc(OC)nc3)n1)CC2` [Example 97], 0.4 to 0.8 µM. In the case of `CNC(=O)c1cc2c(s1)-c1ccccc1N(C(=O)c1cccc(N3CCCOCC3)n1)CC2` [Example 98] it was less than 0.4 µM; in that of `CN(C)C(=O)c1cc2c(s1)-c1ccccc1N(C(=O)c1cccc(N3CCCOCC3)n1)CC2` [Example 99], greater than 0.8 µM. To `O=C(NCC1CC1)c1cc2c(s1)-c1ccccc1N(C(=O)c1cccc(N3CCCOCC3)n1)CC2` [Example 100] belongs less than 0.4 µM; to `COCCNC(=O)c1cc2c(s1)-c1ccccc1N(C(=O)c1cccc(N3CCCOCC3)n1)CC2` [Example 101], less than 0.4 µM; to `O=C(NC1CC1)c1cc2c(s1)-c1ccccc1N(S(=O)(=O)c1cccc(N3CCCOCC3)n1)CC2` [Example 102], greater than 0.8 µM.

`O=C(NC1CC1)c1cc2c(s1)-c1ccccc1N(S(=O)(=O)c1cccc(-c3ccnc(N4CCOCC4)c3)n1)CC2` [Example 103]: the concentration giving a half-maximal response (EC50) is greater than 0.8 µM. To `O=C(NC1CC1)c1ccc2c(c1)-c1ccccc1N(C(=O)c1cccc(N3CCCOCC3)n1)CC2` [Example 104] belongs greater than 0.8 µM. To `COc1ccc(-c2cccc(C(=O)N3CCc4ccc(C(=O)NC5CC5)cc4-c4ccccc43)n2)cn1` [Example 105] belongs greater than 0.8 µM; to `O=C(NC1CC1)c1cc2c(o1)-c1ccccc1N(C(=O)c1cccc(N3CCCOCC3)n1)CC2` [Example 106], 0.4 to 0.8 µM. With `COc1ccc(-c2cccc(C(=O)N3CCc4cc(C(=O)NC5CC5)oc4-c4ccccc43)n2)cn1` [Example 107], the EC50 lay in the range of 0.4 to 0.8 µM. In the case of `O=C(NC1CC1)c1nc2c(s1)CCN(C(=O)c1cccc(N3CCCOCC3)n1)c1ccccc1-2` [Example 108] it was 0.4 to 0.8 µM. In the case of `COc1ccc(-c2cccc(C(=O)N3CCc4sc(C(=O)NC5CC5)nc4-c4ccccc43)n2)cn1` [Example 109] it was greater than 0.8 µM.

`COc1ccc(-c2cccc(C(=O)N3CCc4cnc(NC(=O)C5CC5)nc4-c4ccccc43)n2)cn1` [Example 110]: the EC50 was greater than 0.8 µM. To `O=C(Nc1ncc2c(n1)-c1ccccc1N(C(=O)c1cccc(N3CCCOCC3)n1)CC2)C1CC1` [Example 111] belongs greater than 0.8 µM; to `O=C(NC1CC1)c1cc2c(s1)-c1ccccc1N(C(=O)c1cccc(-n3ccc4ccccc43)n1)CC2` [Example 112], greater than 0.8 µM.

As for `COc1ccc2c(ccn2-c2cccc(C(=O)N3CCc4cc(C(=O)NC5CC5)sc4-c4ccccc43)n2)c1` [Example 113], the EC50 is greater than 0.8 µM.

Consider `COc1cccc2c1ccn2-c1cccc(C(=O)N2CCc3cc(C(=O)NC4CC4)sc3-c3ccccc32)n1` [Example 114], for which the EC50 was greater than 0.8 µM.

Turning to `COCCN(c1ccccc1)c1cccc(C(=O)N2CCc3cc(C(=O)Nc4c(C)cccc4F)sc3-c3ccccc32)n1` [Example 115], the EC50 was less than 0.4 µM. In the case of `Cc1cccc(F)c1NC(=O)c1cc2c(s1)-c1ccccc1N(C(=O)c1cccc(N(C)CC3Cc4ccccc4O3)n1)CC2` (stereo not drawn) [Example 117] it was less than 0.4 µM; in that of `COCCN(CC(C)C)c1cccc(C(=O)N2CCc3cc(C(=O)Nc4c(C)cccc4F)sc3-c3ccccc32)n1` [Example 118], less than 0.4 µM; in that of `COc1cccc2c1ccn2-c1cccc(C(=O)N2CCc3cc(C(=O)Nc4c(C)cccc4F)sc3-c3ccccc32)n1` [Example 119], 0.4 to 0.8 µM. In the case of `COc1ccc2c(ccn2-c2cccc(C(=O)N3CCc4cc(C(=O)Nc5c(C)cccc5F)sc4-c4ccccc43)n2)c1` [Example 120] it was less than 0.4 µM; in that of `O=C(NC1CC1)c1cc2c(s1)-c1ccccc1N(C(=O)c1cccc(-n3cnc4ncccc43)n1)CC2` [Example 121], greater than 0.8 µM. On to `Cc1cccc(F)c1NC(=O)c1cc2c(s1)-c1ccccc1N(C(=O)c1cccc(-n3cnc4ncccc43)n1)CC2` [Example 122], for which the EC50 is greater than 0.8 µM.

With `Cc1cccc(F)c1NC(=O)c1cc2c(s1)-c1ccccc1N(C(=O)c1cccc(-n3nnc4ncccc43)n1)CC2` [Example 123], the concentration giving a half-maximal response (EC50) is greater than 0.8 µM. In the case of `O=C(NC1CC1)c1cc2c(s1)-c1ccccc1N(C(=O)c1cccc(-c3nncn3C3CCOCC3)n1)CC2` [Example 124] it was greater than 0.8 µM. In the case of `COC(C)(C)Cn1cnnc1-c1cccc(C(=O)N2CCc3cc(C(=O)NC4CC4)sc3-c3ccccc32)n1` [Example 125] it was greater than 0.8 µM; in that of `O=C(NC1CC1)c1cc2c(s1)-c1ccccc1N(C(=O)c1cccc(-c3nncn3C3CC3)n1)CC2` [Example 126], greater than 0.8 µM; in that of `O=C(NC1CC1)c1cc2c(s1)-c1ccccc1N(C(=O)c1cccc(-c3nncn3CC3CCOCC3)n1)CC2` [Example 127], greater than 0.8 µM. In the case of `O=C(NC1CC1)c1cc2c(s1)-c1ccccc1N(C(=O)c1cccc(-c3nncn3C3COC3)n1)CC2` [Example 128] it was greater than 0.8 µM. With `Cc1cccc(F)c1NC(=O)c1cc2c(s1)-c1ccccc1N(C(=O)c1ccc(NC(=O)NCCN3CCOCC3)cc1)CC2` [Example 129], the EC50 is greater than 0.8 µM. To `Cc1cccc(F)c1NC(=O)c1cc2c(s1)-c1ccccc1N(C(=O)c1ccc(NC(=O)N3CC4(CCOCC4)C3)cc1)CC2` [Example 130] belongs greater than 0.8 µM; to `Cc1cccc(F)c1NC(=O)c1cc2c(s1)-c1ccccc1N(C(=O)c1ccc(NC(=O)N3CCCOCC3)cc1)CC2` [Example 131], greater than 0.8 µM. To `Cc1cccc(F)c1NC(=O)c1cc2c(s1)-c1ccccc1N(C(=O)c1ccc(NS(=O)(=O)c3cccnc3N3CC4(CCOCC4)C3)cc1)CC2` [Example 132] belongs greater than 0.8 µM; to `Cc1cnc(N2CC3(CCOCC3)C2)c(NS(=O)(=O)c2ccc(C(=O)N3CCc4cc(C(=O)Nc5c(C)cccc5F)sc4-c4ccccc43)cc2)c1` [Example 133], greater than 0.8 µM; to `Cc1cccc(F)c1NC(=O)c1cc2c(s1)-c1ccccc1N(C(=O)c1ccc(Nc3cccnc3N3CC4(CCOCC4)C3)cc1)CC2` [Example 134], greater than 0.8 µM. In the case of `Cc1cccc(F)c1NC(=O)c1cc2c(o1)-c1ccccc1N(C(=O)c1ccc(NC(=O)c3cccnc3N3CC4(CCOCC4)C3)cc1)CC2` [Example 135] it was less than 0.4 µM.
